Measurements taken from ChEMBL document CHEMBL5729321, “Compound exhibiting enteropeptidase inhibitory activity” (2022).

Target: Enteropeptidase (Homo sapiens, UniProt P98073)
Assay: Enteropeptidase Inhibition Assay: The inhibitory activity of the enteropeptidase inhibitor synthesized using the purified Recombinant Human Enteropeptidase and the substrate Acetyl-Asp-Asp-Asp-Asp-Lys-AFC (BioVision) was measured. 7.2 ng/mL of Enteropeptidase diluted with a buffer (20 mM Tris, 50 mM NaCl, pH 7.5) in a 96 well plate (Costar), 30 μM of Acetyl-Asp-Asp-Asp-Asp-Lys-AFC, several concentrations of Enteropeptidase inhibitors (1% DMSO concentration) were dispensed such that a final volume was 100 μL, and then the enzyme reaction was carried out at 30° C. for 1 hour. At this time, 1% DMSO, a substrate and Enteropeptidase instead of the compound were dispensed onto positive control wells, and 1% DMSO and a substrate were dispensed onto negative control wells. The enzyme reaction was started using an excitation wavelength of 380 nm and an emission wavelength of 500 nm in a fluorescence spectrometer, and then the rate of increase in fluorescence (milli-units per min) between 20 and 60 minutes was measured.

Enteropeptidase, sequence (P98073 2-784 limits assumed): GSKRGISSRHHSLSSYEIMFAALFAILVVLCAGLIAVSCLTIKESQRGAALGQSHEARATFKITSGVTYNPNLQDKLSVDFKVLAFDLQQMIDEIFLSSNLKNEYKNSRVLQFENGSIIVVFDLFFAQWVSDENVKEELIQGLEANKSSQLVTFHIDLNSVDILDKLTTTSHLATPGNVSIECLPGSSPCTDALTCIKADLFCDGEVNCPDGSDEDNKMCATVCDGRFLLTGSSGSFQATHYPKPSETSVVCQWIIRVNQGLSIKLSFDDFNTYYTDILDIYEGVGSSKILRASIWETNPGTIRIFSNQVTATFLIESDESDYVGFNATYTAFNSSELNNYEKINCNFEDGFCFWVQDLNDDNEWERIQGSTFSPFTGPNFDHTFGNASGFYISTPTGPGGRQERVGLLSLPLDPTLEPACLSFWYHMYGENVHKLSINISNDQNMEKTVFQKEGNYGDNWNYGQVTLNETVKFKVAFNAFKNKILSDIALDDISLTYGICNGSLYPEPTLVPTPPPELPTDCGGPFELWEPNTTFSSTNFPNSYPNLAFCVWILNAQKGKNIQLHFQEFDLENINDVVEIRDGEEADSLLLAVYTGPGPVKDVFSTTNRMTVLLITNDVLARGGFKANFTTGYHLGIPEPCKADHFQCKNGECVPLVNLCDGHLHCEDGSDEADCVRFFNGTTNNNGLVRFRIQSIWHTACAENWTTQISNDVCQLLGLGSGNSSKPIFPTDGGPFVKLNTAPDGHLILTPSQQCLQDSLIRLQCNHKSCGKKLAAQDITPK
Enteropeptidase, sequence (P98073 785-1019 limits assumed): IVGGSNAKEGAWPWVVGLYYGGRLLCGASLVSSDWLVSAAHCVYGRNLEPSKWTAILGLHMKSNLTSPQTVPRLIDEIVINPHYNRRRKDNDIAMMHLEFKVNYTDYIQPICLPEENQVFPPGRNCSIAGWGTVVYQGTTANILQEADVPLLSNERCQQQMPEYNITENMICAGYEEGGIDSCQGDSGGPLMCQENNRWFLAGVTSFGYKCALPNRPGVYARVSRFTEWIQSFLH

| Ki [nM] | SMILES |
| --- | --- |
| 8.2 | N=C(N)c1ccc(OC(=O)c2cnc(N3CCC(C(=O)N[C@@H](CC(=O)OCc4ccccc4)C(=O)OCc4ccccc4)CC3)s2)c(F)c1 |
| 0.68 | CCN(CCC(=O)O)c1ncc(C(=O)Oc2ccc(C(=N)N)cc2F)s1 |
